Patent US20230210861A1 (priority 2020, published 2023)
“And” between values parts separate entries of the source, which are not always exact repeats. Equal entries are not always repeated. “Also recorded” adds a separate entry of the source. Structures can show the parent of a compound that is named as a salt.

How the values were obtained:
Caco-2 cells = test: Caco-2 cell viability, CellTiter-Glo assay; type: cell-based, human
Method: In parallel, cell viability in the presence of varenicline tartrate and/or copper chloride was determined using CellTiter-Glo assay (Promega), which measures intracellular adenosine triphosphate levels.
Cells treated with DMSO (solvent control) served as controls. Following incubation, […] of CellTiter-Glo substrate was added to each well and the samples were incubated for 10 min on a rocking platform. Following this 10 min incubation, luminescence was recorded using a POLAR star OPTIMA plate reader (BMG Labtech). Samples were run in triplicate and data is normalized with mean luminescence of DMSO only treated cells as 100% viability.
All statistical analyses were performed using GraphPad Prism (version 9, GraphPad Software, Inc.).

SARS-CoV-2 = test: Infection of Caco-2 cells after exposure to SARS-CoV-2 (plaque titration of supernatant); conditions: for percentage of Caco-2 cells infected with SARS-CoV-2, concentration dependence: 24 hours after exposure, MOI of 3, versus vehicle control, in words
human alpha3beta4 nAChR [1] = target: T1, human alpha3beta4 nAChR (Homo sapiens, UniProt P30926+P32297); test: Agonist activity at human alpha3beta4 nAChR expressed in Xenopus oocytes (two-electrode voltage clamp); type: cell-based; conditions: for agonist character at nAChR alpha3beta4: in words
Text: (§1) Agonist Preparation: See Example 1.

human alpha4beta2 nAChR [2] = target: T2, human alpha4beta2 nAChR (Homo sapiens, UniProt P17787+P43681); test: Agonist activity at human alpha4beta2 nAChR expressed in Xenopus oocytes (two-electrode voltage clamp); type: cell-based; conditions: for effect on the subsequent ACh-evoked current, alpha4beta2: after the agonist concentration series; for agonist character at nAChR alpha4beta2: in words
Text: as §1

human alpha7 nAChR [3] = target: T3, human alpha7 nAChR (Homo sapiens, UniProt P36544); test: Agonist activity at human alpha7 nAChR expressed in Xenopus oocytes (two-electrode voltage clamp); type: cell-based; conditions: for agonist character at nAChR alpha7: in words
Text: as §1

human alpha3beta4 nAChR [4] = target: T1, human alpha3beta4 nAChR; test: Desensitization / antagonistic activity, cumulative exposure in the low concentration range, alpha3beta4 in Xenopus oocytes; type: cell-based; conditions: concentrations up to 300 nM, in words
[5] = target: T4, human alpha3alpha5beta4 nAChR (Homo sapiens, UniProt P30926+P32297); test: Desensitization / antagonistic activity, cumulative exposure in the low concentration range, alpha3alpha5beta4 in Xenopus oocytes; type: cell-based; conditions: concentrations up to 300 nM; in words; dihydrate
human alpha4beta2 nAChR [6] = target: T2, human alpha4beta2 nAChR; test: Desensitization / antagonistic activity, cumulative exposure in the low concentration range, alpha4beta2 in Xenopus oocytes; type: cell-based; conditions: concentrations up to 300 nM; in words; dihydrate
human alpha7 nAChR [7] = target: T3, human alpha7 nAChR; test: Desensitization / antagonistic activity, cumulative exposure in the low concentration range, alpha7 in Xenopus oocytes; type: cell-based; conditions: concentrations up to 300 nM; in words; dihydrate
Method: (§2) All experiments were carried out at human nAChRs expressed in Xenopus oocytes using the method of cDNA expression. Xenopus oocytes were prepared and injected using standard procedures.
(§3) Currents evoked by ACh or other agonists were recorded using an automated process equipped with standard two-electrode voltage-clamp configuration (TEVC). Data were captured and analyzed using a HiQScreen proprietary data acquisition and analysis software running under Matlab (Mathworks Inc.).
(§4) Injections of cDNAs encoding for the human alpha3beta4, alpha3alpha5beta4, alpha4beta2, and alpha7 were performed in at least 95 oocytes were performed using a proprietary automated injection and receptor expression examined at least two days later. Oocytes were poked with two electrodes and their membrane potential maintained, unless indicated, at −80 mV throughout the experiment.

[8] = target: T4, human alpha3alpha5beta4 nAChR; test: Agonist activity at human alpha3alpha5beta4 nAChR expressed in Xenopus oocytes (two-electrode voltage clamp); conditions: for EC50: EC50 at nAChR alpha3alpha5beta4, test concentrations 0.1-300 uM; for agonist character at nAChR alpha3alpha5beta4: in words
Method: as §2
Briefly, ovaries were harvested from Xenopus Laevis females that have been deeply anesthetized by cooling at 4° C. and Tricaine methanesulfonate (MS-222 at a concentration of 150 mg/L) in sodium bicarbonate (300 mg/L). Once anesthetized the animal was decapitated and pithed following the rules of animal rights from the Geneva canton. A small piece of ovary was isolated for immediate preparation while the remaining part was placed at 4° C. in a sterile Barth solution containing in mM NaCl 88, KCl 1, NaHCO3 2.4, HEPES 10, MgSO4·7H2O 0.82, Ca(NO3)2·4H2O 0.33, CaCl2·6H2O 0.41, at pH 7.4, and supplemented with 20 ug/ml of kanamycin, 100 unit/ml penicillin. All recordings were performed at 18° C. and cells superfused with OR2 medium containing in mM: NaCl 88, KCl 2.5, HEPES 5, CaCl2·2H2O 1.8, MgCl2·6H2O 1, pH 7.4.
as §3
ACh was prepared as a concentrated stock solution (10^−1M) in water and then diluted in the recording medium to obtain the desired test concentration. Compounds were dissolved in OR2 as stock solution (1 mM) and the final dilution to the desired concentration was made on the day of the experiment. OR2 medium contains in mM: NaCl 88.5, KCl 2.5, HEPES 5, CaCl2·2H2 1.8, MgCl2·6H2 1, pH 7.4.
The test concentration of acetylcholine chloride was 1280 uM.
as §4
A protocol to determine agonistic activity in the oocytes expressing the nAChRs was developed. The cells were exposed to a series of increasing concentrations of a compound agonist for 10 seconds each at two minute intervals. The current evoked from exposure to the agonist at each concentration was recorded. For oocytes expressing alpha7 nAChRs, exposure to the agonist was reduced to 5 seconds. This process was repeated for each agonist tested against each type of nAChR expressing cell.
Experimental Procedures: Injections of cDNAs encoding for the human alpha3beta4, alpha3alpha5beta4, alpha4beta2, alpha4alpha6beta2, and alpha7 were performed in at least 95 oocytes using a proprietary automated injection device. Cellular receptor expression was examined at least two days later. Oocytes were poked with two electrodes and their membrane potential maintained, unless indicated, at −80 mV throughout the experiment.
A protocol to determine agonistic activity in the oocytes expressing the nAChRs was developed. Oocytes expressing a nAChR subtype were exposed to a brief test pulse of acetylcholine (1280 uM) while the holding current and response was evaluated. Cells displaying robust currents were washed for 90 seconds. The cells were then exposed to a series of increasing concentrations of a nAChR agonist for 10 seconds each at two minute intervals. The nAChR agonist test concentrations were 0.1, 0.3, 1, 3, 10, 30, 100, 300 (uM). The current evoked from exposure to the agonist at each concentration was recorded.

[9] = target: human alpha4alpha6beta2 nAChR (Homo sapiens, UniProt P17787+P43681+Q15825); test: Agonist activity at human alpha4alpha6beta2 nAChR expressed in Xenopus oocytes (two-electrode voltage clamp); type: cell-based; conditions: for agonist character at nAChR alpha4alpha6beta2: in words
Text: as §1

[10] = target: nAChR subtype alpha6beta2 (Homo sapiens, UniProt P17787+Q15825); conditions: in words; no experiment described; cited from earlier work
[11] = Pharmacokinetics in human subjects after 28 days of intranasal administration of Compound 1 hemigalactarate salt (Example 5); type: in vivo
Method: Blood plasma for the patients was collected on Day 29 predose (time 0) and after a series of time points (10 min, 20 min, 30 min, 1 hr, 2 hrs, 4 hrs, 5 hrs, 6 hrs, 7 hrs, 8 hrs, and 24 hrs) after a single administration of drug. The blood plasma was analyzed for Compound 1.
The following pharmacokinetic parameters for Compound 1 were calculated: • Cmax: Maximum observed concentration, observed by inspection of individual study participant plasma concentration time plots. • Tmax: Time of maximum observed concentration, obtained directly from the observed concentration time data. • AUClast: The area under the plasma concentration time curve, from time 0 to the last measurable non-zero concentration, calculated by a combination of linear and logarithmic trapezoidal methods (Linear up/log down method). • AUC0-4 h: The area under the plasma concentration time curve, from time 0 to the 4 h time point, calculated by a combination of linear and logarithmic trapezoidal methods (Linear up/log down method). • AUCinf: The area from zero time (pre-dose) extrapolated to infinite time (AUCinf) will be calculated as follows: AUCinf=AUClast+Cz/λz • AUC % Extrap: The percentage of AUCinf obtained by extrapolation (AUC % Extrap) will be calculated as follows: […]

[12] = target: nAChR subtype alpha3beta2 (Homo sapiens, UniProt P17787+P32297); conditions: in words; no experiment described; cited from earlier work
human alpha3beta4 nAChR [13] = target: T1, human alpha3beta4 nAChR; test: Sustained exposure to 300 uM varenicline tartrate and its recovery, alpha3beta4; type: cell-based; conditions: 300 uM applied during three minutes; in words
[14] = listed as Compound 1 hemi-galactarate dihydrate, dihydrate
[15] = listed as Compound 1 citrate, mono-citrate
[16] = test concentrations 0.1-300 uM, ACh 1280 uM reference

T2 sequence (P43681 29-627 limits assumed): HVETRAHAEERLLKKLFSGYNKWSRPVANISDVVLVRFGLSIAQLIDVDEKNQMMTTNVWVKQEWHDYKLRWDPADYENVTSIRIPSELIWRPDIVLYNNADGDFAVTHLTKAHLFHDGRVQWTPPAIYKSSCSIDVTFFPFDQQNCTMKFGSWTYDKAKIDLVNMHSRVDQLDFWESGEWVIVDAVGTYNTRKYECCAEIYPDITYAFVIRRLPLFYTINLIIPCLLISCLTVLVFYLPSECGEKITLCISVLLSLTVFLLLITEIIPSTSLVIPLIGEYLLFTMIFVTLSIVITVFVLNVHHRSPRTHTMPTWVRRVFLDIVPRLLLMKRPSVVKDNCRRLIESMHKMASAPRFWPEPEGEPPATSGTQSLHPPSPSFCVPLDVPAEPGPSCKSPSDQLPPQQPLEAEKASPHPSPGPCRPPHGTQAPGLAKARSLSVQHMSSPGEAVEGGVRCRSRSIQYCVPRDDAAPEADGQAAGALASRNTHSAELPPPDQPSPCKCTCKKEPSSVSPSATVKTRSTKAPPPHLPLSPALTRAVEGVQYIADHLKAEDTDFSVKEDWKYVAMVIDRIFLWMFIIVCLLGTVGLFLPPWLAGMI
T2 sequence (P17787 26-502): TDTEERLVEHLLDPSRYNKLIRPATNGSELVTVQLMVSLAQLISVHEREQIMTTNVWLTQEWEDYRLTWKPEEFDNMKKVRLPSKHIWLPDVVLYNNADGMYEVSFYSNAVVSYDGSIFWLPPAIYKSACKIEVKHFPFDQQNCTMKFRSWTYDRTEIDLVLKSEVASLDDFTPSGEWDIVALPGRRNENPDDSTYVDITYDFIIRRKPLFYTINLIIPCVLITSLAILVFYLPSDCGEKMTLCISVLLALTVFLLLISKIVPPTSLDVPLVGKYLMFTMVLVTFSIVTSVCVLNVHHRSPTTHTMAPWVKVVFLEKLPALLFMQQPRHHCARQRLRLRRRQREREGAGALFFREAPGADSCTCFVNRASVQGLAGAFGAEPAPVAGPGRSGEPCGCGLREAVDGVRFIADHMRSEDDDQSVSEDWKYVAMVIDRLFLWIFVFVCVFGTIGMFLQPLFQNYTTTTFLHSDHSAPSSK
Sequence of human alpha4alpha6beta2 nAChR (P43681 29-627 limits assumed): as the sequence (P43681 29-627 limits assumed) above
Sequence of human alpha4alpha6beta2 nAChR (Q15825 26-494): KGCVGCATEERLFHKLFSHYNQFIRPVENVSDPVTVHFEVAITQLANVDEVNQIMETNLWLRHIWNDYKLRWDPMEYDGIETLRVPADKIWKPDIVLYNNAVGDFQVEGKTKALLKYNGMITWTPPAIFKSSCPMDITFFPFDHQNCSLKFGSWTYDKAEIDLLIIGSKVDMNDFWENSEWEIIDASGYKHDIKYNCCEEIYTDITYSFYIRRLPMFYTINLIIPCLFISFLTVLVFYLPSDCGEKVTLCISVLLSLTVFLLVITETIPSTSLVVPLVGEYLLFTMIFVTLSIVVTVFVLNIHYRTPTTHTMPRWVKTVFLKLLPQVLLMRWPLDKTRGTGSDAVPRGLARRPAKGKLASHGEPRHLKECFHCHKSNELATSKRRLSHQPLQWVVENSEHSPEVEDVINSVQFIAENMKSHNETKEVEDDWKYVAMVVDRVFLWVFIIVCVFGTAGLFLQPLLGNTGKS
Sequence of human alpha4alpha6beta2 nAChR (P17787 26-502): as the sequence (P17787 26-502) above
T4 sequence (P32297 32-505): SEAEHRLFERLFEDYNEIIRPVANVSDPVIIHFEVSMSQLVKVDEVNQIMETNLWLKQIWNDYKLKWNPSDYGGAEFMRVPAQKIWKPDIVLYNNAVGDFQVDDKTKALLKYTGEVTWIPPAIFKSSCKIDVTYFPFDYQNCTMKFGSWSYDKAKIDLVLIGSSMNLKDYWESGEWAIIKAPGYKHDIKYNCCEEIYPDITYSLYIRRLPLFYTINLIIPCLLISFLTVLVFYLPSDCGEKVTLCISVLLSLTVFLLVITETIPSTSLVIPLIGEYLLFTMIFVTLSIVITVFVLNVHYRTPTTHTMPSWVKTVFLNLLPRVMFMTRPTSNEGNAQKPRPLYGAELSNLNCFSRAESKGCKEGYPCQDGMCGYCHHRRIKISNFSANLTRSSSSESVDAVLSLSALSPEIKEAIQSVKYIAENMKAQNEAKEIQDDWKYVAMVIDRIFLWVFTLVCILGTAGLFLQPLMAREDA
T4 sequence (P30532 23-468 partner): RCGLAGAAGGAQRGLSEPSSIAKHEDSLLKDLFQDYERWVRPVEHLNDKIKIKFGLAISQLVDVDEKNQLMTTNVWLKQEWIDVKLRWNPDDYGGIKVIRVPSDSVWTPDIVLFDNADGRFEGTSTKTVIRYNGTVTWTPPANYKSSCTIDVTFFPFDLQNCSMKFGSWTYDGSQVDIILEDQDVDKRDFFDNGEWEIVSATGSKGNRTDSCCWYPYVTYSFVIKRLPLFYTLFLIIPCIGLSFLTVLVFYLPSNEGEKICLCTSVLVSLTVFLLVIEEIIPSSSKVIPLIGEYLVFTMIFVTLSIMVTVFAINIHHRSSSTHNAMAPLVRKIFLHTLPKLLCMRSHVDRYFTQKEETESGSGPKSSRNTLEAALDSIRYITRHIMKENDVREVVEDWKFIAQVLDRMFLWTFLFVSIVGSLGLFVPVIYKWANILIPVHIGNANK
T4 sequence (P30926 22-498): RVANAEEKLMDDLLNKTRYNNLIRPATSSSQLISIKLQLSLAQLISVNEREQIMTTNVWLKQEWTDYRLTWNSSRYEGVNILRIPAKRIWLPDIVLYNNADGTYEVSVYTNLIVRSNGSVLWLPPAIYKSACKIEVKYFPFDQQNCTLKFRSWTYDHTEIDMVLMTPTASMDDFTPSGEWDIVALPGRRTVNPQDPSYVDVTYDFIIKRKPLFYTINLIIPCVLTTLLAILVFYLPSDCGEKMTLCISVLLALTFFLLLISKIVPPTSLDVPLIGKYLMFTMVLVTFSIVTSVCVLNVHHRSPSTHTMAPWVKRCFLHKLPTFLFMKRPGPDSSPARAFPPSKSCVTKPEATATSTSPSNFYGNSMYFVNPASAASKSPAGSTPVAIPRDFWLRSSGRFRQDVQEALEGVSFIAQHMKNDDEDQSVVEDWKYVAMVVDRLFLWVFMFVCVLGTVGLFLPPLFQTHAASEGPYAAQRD
T1 sequence (P32297 32-505): as the sequence (P32297 32-505) above
T1 sequence (P30926 22-498): as the sequence (P30926 22-498) above
T3 sequence (P36544 23-502): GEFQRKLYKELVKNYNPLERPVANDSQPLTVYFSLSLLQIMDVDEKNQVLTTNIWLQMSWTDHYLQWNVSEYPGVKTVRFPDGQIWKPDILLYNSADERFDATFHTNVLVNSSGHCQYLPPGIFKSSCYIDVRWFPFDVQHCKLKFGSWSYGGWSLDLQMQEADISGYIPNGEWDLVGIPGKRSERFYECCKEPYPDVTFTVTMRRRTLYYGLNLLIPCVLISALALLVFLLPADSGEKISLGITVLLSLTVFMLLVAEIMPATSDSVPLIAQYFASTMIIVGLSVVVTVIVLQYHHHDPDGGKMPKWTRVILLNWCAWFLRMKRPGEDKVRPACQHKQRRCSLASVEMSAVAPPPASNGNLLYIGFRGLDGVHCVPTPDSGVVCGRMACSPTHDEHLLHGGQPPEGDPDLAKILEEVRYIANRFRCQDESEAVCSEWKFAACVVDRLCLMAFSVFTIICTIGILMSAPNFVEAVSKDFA
Sequence of nAChR subtype alpha6beta2 (Q15825 26-494): as the sequence (Q15825 26-494) above
Sequence of nAChR subtype alpha6beta2 (P17787 26-502): as the sequence (P17787 26-502) above
Sequence of nAChR subtype alpha3beta2 (P32297 32-505): as the sequence (P32297 32-505) above
Sequence of nAChR subtype alpha3beta2 (P17787 26-502): as the sequence (P17787 26-502) above

[Cl][Cu][Cl] [copper chloride]
cellular viability at 72 hours post-drug exposure (Caco-2 cells; copper chloride concentrations of less than 1 uM): no significant impact on cellular viability | cellular viability at 72 hours post-drug exposure (Caco-2 cells; exposures greater than 1 uM copper chloride): Some cellular toxicity | percentage of Caco-2 cells infected with SARS-CoV-2, concentration dependence (SARS-CoV-2): dose-dependent decrease

C(=C\[C@H]1CCNC1)/c1cncnc1 [compound 1 hemi-galactarate dihydrate, (R)-5-((E)-2-pyrrolidin-3-ylvinyl)pyrimidine hemigalactarate dihydrate]
agonist character at nAChR alpha3beta4 (human alpha3beta4 nAChR [1]; [14]): almost as a full agonist | current evoked, percent of the maximal ACh-evoked currents, alpha3beta4 (human alpha3beta4 nAChR [1]; maximal response): about 94% | effect on the subsequent ACh-evoked current, alpha4beta2 (human alpha4beta2 nAChR [2]; dihydrate): enhanced the subsequent ACh-evoked currents | agonist character at nAChR alpha4beta2 (human alpha4beta2 nAChR [2]; [14]): more potent agonist than ACh | evoked currents larger than the maximal ACh responses, alpha4beta2 (human alpha4beta2 nAChR [2]; relative to maximal ACh response): about 2 fold | current evoked at 300 uM, percent of the maximal ACh-evoked current, alpha7 (human alpha7 nAChR [3]; dihydrate): 24% | agonist character at nAChR alpha7 (human alpha7 nAChR [3]; dihydrate): poor agonist | agonist character at nAChR alpha7 (human alpha7 nAChR [3]; [14]): more potent agonist than ACh | inhibition of ACh-evoked current on sustained exposure, alpha3beta4 (human alpha3beta4 nAChR [4]; dihydrate): insensitive; also recorded: no significant inhibition | inhibition of ACh-evoked current on sustained exposure, alpha3alpha5beta4 [5]: marked inhibition; also recorded: inhibits in a concentration-dependent manner | inhibition of ACh-evoked current on sustained exposure, alpha4beta2 (human alpha4beta2 nAChR [6]): marked inhibition; also recorded: inhibits in a concentration-dependent manner | inhibition of ACh-evoked current on sustained exposure, alpha7 (human alpha7 nAChR [7]): insensitive; also recorded: no significant inhibition | EC50 ([8]; ACh 1280 uM reference): 32.1 ± 2.16 µM | agonist character at nAChR alpha3alpha5beta4 [8, 14]: almost as a full agonist | current evoked, percent of the maximal ACh-evoked currents, alpha3alpha5beta4 ([8]; maximal response): about 94%

C(=C\[C@H]1CCNC1)/c1cncnc1 [compound 1 citrate, (R)-5-((E)pyrrolidin-3-ylvinyl)pyrimidine mono-citrate]
agonist character at nAChR alpha3beta4 (human alpha3beta4 nAChR [1]; [15]): almost as a full agonist | effect on the subsequent ACh-evoked current, alpha4beta2 (human alpha4beta2 nAChR [2]; mono-citrate): Significant inhibition of the current evoked by the second Ach exposure | agonist character at nAChR alpha4beta2 (human alpha4beta2 nAChR [2]; [15]): almost as a full agonist | current evoked at 300 uM, percent of the maximal ACh-evoked current, alpha7 (human alpha7 nAChR [3]; [15]): 25% | current evoked at 300 uM, percent of the maximal ACh-evoked current, alpha7 (human alpha7 nAChR [3]; mono-citrate): 25% | agonist character at nAChR alpha7 (human alpha7 nAChR [3]; [15]): poor agonist | agonist character at nAChR alpha7 (human alpha7 nAChR [3]; mono-citrate): weak partial agonist | agonist character at nAChR alpha4alpha6beta2 [9, 15]: almost as a full agonist | EC50 ([8]; ACh 1280 uM reference): 83 ± 9.05 µM | agonist character at nAChR alpha3alpha5beta4 [8, 15]: almost as a full agonist

c1cnc2cc3c(cc2n1)[C@@H]1CNC[C@H]3C1 [varenicline]
agonist character at nAChR alpha3beta4 (human alpha3beta4 nAChR [1]): partial agonist | agonist character at nAChR alpha4beta2 (human alpha4beta2 nAChR [2]): partial agonist | agonist character at nAChR alpha7 (human alpha7 nAChR [3]): full agonist | effect on the subsequent ACh-evoked current, alpha4alpha6beta2 ([9]; after the agonist concentration series): significant inhibition of the subsequent ACh-evoked current | response compared to the ACh response, alpha4alpha6beta2 ([9]; concentrations from 0.1 uM to 300 uM): ≤ 6% | agonist character at nAChR alpha4alpha6beta2 [9]: weak partial agonist | agonist character at nAChR alpha6beta2 [10]: partial agonist | agonist character at nAChR alpha3alpha5beta4 [8]: partial agonist

C(=C\[C@H]1CCNC1)/c1cncnc1 [Compound 1, (R)-5-((E)-2-pyrrolidin-3-ylvinyl)pyrimidine]
agonist character at nAChR alpha3beta4 (human alpha3beta4 nAChR [1]): full agonist | agonist character at nAChR alpha4beta2 (human alpha4beta2 nAChR [2]): full agonist | agonist character at nAChR alpha7 (human alpha7 nAChR [3]): full agonist; also recorded: weak partial agonist | agonist character at nAChR alpha4alpha6beta2 [9]: full agonist | AUC % Extrap, Max ([11]; Day 29, N=7): 41.1% | AUC % Extrap, Mean ([11]; Day 29, N=7): 21.3% | AUC % Extrap, Median ([11]; Day 29, N=7): 23.3% | AUC % Extrap, Min ([11]; Day 29, N=7): 3.69% and 3.67% | detection in plasma ten minutes after administration ([11]; Day 29, 7 subjects): detected in plasma from all subjects | fraction cleared from systemic circulation before the next administration ([11]; if administered every 12 hours (4 half-lives), from maximum half-life 2.83 h): > 94% | agonist character at nAChR alpha3beta2 [12]: partial agonist | agonist character at nAChR alpha3alpha5beta4 [8]: full agonist

varenicline tartrate [reference compound]
agonist character at nAChR alpha3beta4 (human alpha3beta4 nAChR [1]): partial agonist | EC50 at nAChR alpha3beta4 (human alpha3beta4 nAChR [1]; [16]): low micromolar range | effect on the subsequent ACh-evoked current, alpha4beta2 (human alpha4beta2 nAChR [2]): major inhibition of the subsequent ACh-evoked current | agonist character at nAChR alpha4beta2 (human alpha4beta2 nAChR [2]): partial agonist | agonist character at nAChR alpha4beta2 (human alpha4beta2 nAChR [2]; listed as Varenicline tartrate): very poor agonist | EC50 at nAChR alpha4beta2 (human alpha4beta2 nAChR [2]; [16]): low micromolar range | inhibition of ACh-evoked current on sustained exposure, alpha3beta4 (human alpha3beta4 nAChR [4]): very modest effect; also recorded: no significant inhibition | current evoked by sustained exposure, alpha3beta4 (human alpha3beta4 nAChR [13]): larger current amplitude; also recorded: rather large response | cellular viability at 72 hours post-drug exposure (Caco-2 cells; even at 100 uM varenicline tartrate): no significant impact on cellular viability | infection rate of the cells without copper chloride (SARS-CoV-2; 0.1 uM and 0.5 uM varenicline tartrate, 24 hours, MOI 3, normalized to untreated (FIG. 3)): ~100% | percentage of Caco-2 cells infected with SARS-CoV-2, concentration dependence (SARS-CoV-2): dose-dependent decrease | agonist character at nAChR alpha3alpha5beta4 [8]: partial agonist | EC50 at nAChR alpha3alpha5beta4 [8, 16]: low micromolar range
